Reference: US8299237B2, “Nucleic acid sequences comprising NF-κB binding site within O(6)-methylguanine-DNA-methyltransferase (MGMT) promoter region and uses thereof for the treatment of cancer and immune-related disorders” (Hadasit Medical Research Services & Development Ltd., priority 2007, dated 2012)
“Also recorded” adds a separate entry of the source. Like-named read-outs stand apart in the source and are kept apart here.

Columns and labels:
[1] = test system: glioma cell lines A172, U87MG and T98G; test: BCNU crystal violet viability test in glioma cell lines; type: cell-based; settings: BCNU 5-80 μg/ml, 2 hrs; viability 48 hrs later; p<0.001
Method: (§1) Various glioma cell lines (A172, U87MG, and T98G) or HEK293 were transiently transfected with different plasmids as indicated above. For the BG-treated groups, BG (Benzyl Guanine, an MGMT inhibitor) was added to the cell medium 4-6 hrs after transfection at a final concentration of 80 μM and incubated with the cells for the duration of the experiment. At 24 hrs following transfection, the cells were exposed for 2 hrs to increasing concentrations of BCNU (as indicated), which is a β-chloro-nitrosourea compound used as an alkylating agent in chemotherapy. The cells were fixed 48 hrs later with 4% paraformaldehyde for 20 min at room temperature, and washed twice with PBS. A 400 μl volume of 0.5% crystal violet in dH2O was added and the cells were stained for 15 min on a vibrator at 300 rpm. The dye was aspirated, the wells rinsed with dH2O, and the plate was allowed to dry in the hood. For destaining, 400 μl of 10% acetic acid were added to each well and the cells were incubated for 15 min on a vibrator at 300 rpm. The optical density (OD590) of the de-stained solution in each well was read and recorded.
(§2) To determine whether this also results in induction of cellular resistance to alkylating agents, the sensitivity of the three glioma cell lines to increasing quantities of BCNU (5-80 μg/ml), was next compared. […]

HEK293 cells = test: BG and BCNU treatment, crystal violet viability test in transfected HEK293; type: cell-based, human; settings: BG 80 μM added 4-6 hrs after transfection; control and p65 transfected HEK293; BCNU 20-80 μg/ml 2 hrs
Method: as §1, §2

T98MG gliomas cell line [2] = type: cell-based, human
Method: (§3) T98MG glioma cell line cells were treated with increasing doses of the decoy ODN's of the invention. Double stranded ODNs (30mers), corresponding to MGMT-κB1 binding site (as also denoted by SEQ. ID. NO. 1), and control ODNs were purchased from IDT. Each strand of ODN was thirty-mers and contained six LNA nucleotides. The following ODNs were used: MGMT-kB1forward: 5′---+T+AATGGGG+ACTTTAC GGG+[…]+A+T---3′ (as also denoted by SEQ. ID. NO. 40) with or without the 5′ end labeled with carboxyfluorescein-5-succimidyl ester (FAM). The MGMT-kB1 reverse ODN: 5′---+A+TTCTGTA+[…]+[…]+T+A---3′ as also denoted by SEQ ID NO. 41). Control forward: 5′---+T+AG TGT CG+A CTT CAC TCT+ACT TGA CAG A+A+T---3′ (as also denoted by SEQ ID NO. 42), control reverse: 5′---+A+TT CTG TC+A AGT AGA GTG+AAG TCG ACA C+T+A---3′ as also denoted by SEQ ID NO. 43). It should be noted that (+designated as nucleotide containing an LNA modification).
(§4) The viability of the cells was tested 24-48 hrs later by CellTiter-Blue assay (Promega®). The assay was carried out according to the supplier's instructions. Briefly, the assay is based on the ability of living cells to convert a redox dye (resazurin) into a fluorescent end product (resorufin). Cell viability estimation is done by measuring the fluorescent intensity of resorufin (ex. 560 nm, em. 590 nm) using a fluorescent microplate reader.
The inventors next tested the potential of the decoy LMODN molecules of the invention to sensitize tumor cells to alkylating agents and thereby improve their efficacy as anti-cancerous treatment. Therefore, several human cancer cell lines were treated with alkylating agents with increasing doses of MGMT-kB1-ODN followed by cell viability tests. First, the sensitivity of each cell line to several alkylating agents, mainly temozolomide (TMZ) and BCNU was calibrated. At 24 hrs following sowing, cells were exposed for two hours to increasing concentrations of the alkylating agent and viability of the cells was tested 24-48 hrs later by CellTiter-Blue assay (Promega®). To test the potential of MGMT-kB1-LMODN to sensitize tumor cells to alkylating agents in-vitro, increasing doses of LMODNs MGMT-kB1 forward and reverse as denoted by SEQ ID NO. 40 and 41, respectively), with or without the 5′ end labeled with carboxyfluorescein-5-succimidyl ester (FAM), as well as the control LMODNs (as denoted by SEQ ID NO. 42 and 43), were liposomally introduced (Lipofectamine 2000, Invitrogen) to various tumor cancer cells. Twenty four hours later, cells were treated with the different doses of alkylating agents as calibrated before.
FIG. 9 represents an example of T98MG gliomas cell line sensitized to alkylating agents in response to treatment with the LMODN's of the invention. […]

[3] = test system: MGMT-kB1-Luc reporter construct induced by NF-κB/p65; test: Luciferase reporter assay, MGMT-kB1-Luc co-transfected with NF-κB/p65; type: cell-based, human; settings: for effect on luciferase activity driven by MGMT-kB1 reporter (in words): HEK293T co-transfected with MGMT-kB1 reporter and NF-κB/p65
Method: (§5) Transient transfections were performed in 6-well plates, using the FuGene6 transfection reagent (Roche Diagnostics GmbH, Mannheim, Germany), according to the manufacturer's instructions. U87MG, T98G, and A172 cells were transfected with pNF-κB-Luc reporter Vector (Clontech, Palo Alto, Calif.), while RG2 and U87MG were transfected with MGMT-Luc [construct p-954/+24 mL [Biswas T. et al. Oncogene 18:525-32 (1999)] kindly provided by Sankar Mitra] (1 μg/well). CMVβ-galactosidase expression vector (CMVβgal-Clonthech) was included (0.1 μg/well) in each transfection to normalize transfection efficiency. HEK293 cells were transfected with CMVβgal alone or along with one or more of the following plasmids: CMVp65, CMVΔNIκB, CMVp50, CMVcJun. CMVp65 and CMVΔNIκB plasmids were kindly provided by Prof. Yinon. Ben-Neriah (The Hebrew University, Jerusalem, Israel), CMVp50 and CMVcJun were kindly provided by Dr. Danielle Melloul (Hadassah Hebrew University Medical Center, Jerusalem, Israel).
At 24 hrs following transfection, the cells were lysed for 15 min on ice with 200 μl of luciferase lysis buffer (Promega, Madison, Wis.). Luciferase assays were carried out using a Promega assay kit and a luminometer (EG&G Berthold, Bad Wildbad, Germany). The activity was normalized to β-galactosidase activity (Promega) and plotted as the mean±s.d. of triplicates from a representative experiment.
For the cloning of the MGMT-luc constructs the reporter vector p-TA-Luc (Clontech, Palo Alto, USA) was used. The plasmid contains TATA box motif upstream to a luciferase reporter gene. A double stranded DNA corresponding to four repeats of each sequence as indicated by FIG. 8A (also denoted by SEQ ID NO. 44, 45, 46 and 47), was synthesis by syntezza LTD and ligated upstream to the TATA box.
To test the activity of these sites, several luciferase reporter genes bearing four copies of either intact or mutant sequence, of each of the two NF-κB sites (NF-κB1 and NF-κB2), were constructed as indicated in Experimental procedures. […] An inhibition of approximately 50% was observed using 100 nM ODN. Negative control using the CMVΔNIκB (ΔN)-Luc construct as well as positive control using the canonical HIV-κB-Luc reporter construct, confirmed validity of the data.
Induction of over expression of NF-κB in HEK 293T cells by transfection of a CMV-NF-κB/p65 generated a 50-fold elevation in luciferase expression driven by the Co-transfected reporter construct MGMT-kB1-Luc. […] Inhibition of approximately 90% was induced by 150 nM LMODN. […] No inhibition was detected when a mutant LMODN was introduced into the cells, indicating the specificity of MGMT-kB1-LMODN (of SEQ ID NO. 40 and 41). […] 3 (HIV-κB-Luc construct).

[4] = test system: canonical NF-κB binding site from HIV (HIV-κB-Luc construct); test: Luciferase reporter assay, HIV-κB-Luc construct induced by p65; type: cell-based, human; settings: 150 nm LMODN
Method: as §5, with “Israel). […]” for “Israel).”
Induction of over expression of NF-κB in HEK 293T cells by transfection of a CMV-NF-κB/p65 generated a 50-fold elevation in luciferase expression driven by the Co-transfected reporter construct MGMT-kB1-Luc. […] No inhibition was detected when a mutant LMODN was introduced into the cells, indicating the specificity of MGMT-kB1-LMODN (of SEQ ID NO. 40 and 41). […]

T98MG gliomas cell line [5] = type: cell-based, human; settings: corresponding concentrations, 48 hours
Method: as §3
as §4, with “reader. […]” for “reader.”

Molecule: O=NN(CCCl)C(=O)NCCCl [BCNU, 1,3-bis(2-chloroethyl)-1-nitrosourea]
- resistance of T98G to BCNU compared with A172 and U87MG (in words) [1]: more resistant

Molecule: Nc1nc(OCc2ccccc2)c2nc[nH]c2n1 [BG, O6-Benzylguanine]
- effect of BG on sensitivity to BCNU (in words) (HEK293 cells): augmented the cell sensitivity to BCNU; also recorded: completely abrogated the p65-induced chemoresistance

Molecule: Cn1nnc2c(C(N)=O)ncn2c1=O [TMZ, temozolomide]
- live cells (T98MG gliomas cell line [2]; 2.5 mM TMZ without LMODN): 60%

Molecule: MGMT-kB1-LMODN: double stranded 30-mer LNA modified decoy ODN of MGMT-κB1 site; forward SEQ ID NO. 40, reverse SEQ ID NO. 41 (sense TAATGGGGACTTTACGGGACTTTACAGAAT; antisense ATTCTGTAAAGTCCCGTAAAGTCCCCATTA; LNA modified, positions not given here; listed as Homo sapiens) [double stranded 30-mer LNA modified decoy ODN of MGMT-κB1 site; 41]
- inhibition of luciferase activity ([3]; 150 nM LMODN, liposomal, HEK 293T, MGMT-kB1-Luc + NFκB/p65 (FIG. 8)): approximately 90%
- effect on luciferase activity driven by MGMT-kB1 reporter (in words) [3]: inhibited the luciferase activity in a dose-dependent manner
- inhibitory activity relative to NF-κB super repressor ΔNI-κB ([3]; LMODN at 150 nM): two fold greater
- toxicity to cells, viability of cells treated only with the LMODN (T98MG gliomas cell line [2]): not toxic to the cells
- live cells (T98MG gliomas cell line [2]; 2.5 mM TMZ with 2 nm LMODN): 22%
- inhibition of p65-induced luciferase expression [4]: 57%

Molecule: mMGMT-kB1-LMODN: mutant control LNA modified ODN; control forward SEQ ID NO. 42, control reverse SEQ ID NO. 43 (sense TAGTGTCGACTTCACTCTACTTGACAGAAT; antisense ATTCTGTCAAGTAGAGTGAAGTCGACACTA; LNA modified, positions not given here; listed as Homo sapiens) [mutant control LNA modified ODN; 43]
- effect on luciferase activity driven by MGMT-kB1 reporter (in words) [3]: No inhibition
- additive effect with TMZ (in words) (T98MG gliomas cell line [2]; 2.5 mM TMZ with mutant LMODN (FIG. 9)): no any additive effect
- effect on cell survival (in words) (T98MG gliomas cell line [5]): no reduction in cell survival
